Assay results from paper PMC7346113, “Screening of Natural Stilbene Oligomers from Vitis vinifera for Anticancer Activity on Human Hepatocellular Carcinoma Cells” (Antioxidants, 2020).

Assays:
Format in all cases: cell-based, human
Conditions in all cases: mean ± standard error
[1] = system: Hep3B; assay: Cell viability, crystal violet assay, Hep3B
From the text: (§1) The human hepatoma cell line HepG2 was obtained from the American Tissue Culture Collection (ATCC, Manassas, VA, USA). The human hepatoma cell line Hep3B was obtained from the European Collection of Authenticated Cell Cultures (ECACC, Porton Down, Salisbury, Wiltshire, UK). HH4 non-transformed human hepatocyte cell line (kindly provided by Dr. I. Fabregat, Molecular Oncology, Bellvitge Biomedical Research Institute, Spain) was established as described.
(§2) HepG2 and Hep3B cell lines were maintained in Eagle’s Minimum Essential Medium and HH4 cell line was grown in Ham´s F12 Nutrient Mixture (Sigma-Aldrich, St Louis, MO, USA). Both culture media were supplemented with 10% heat inactivated fetal bovine serum, 2 mM L-glutamine and antibiotics (0.1 mg/mL streptomycin and 100 U/mL penicillin) (Sigma-Aldrich, St Louis, MO, USA). Cell cultures were grown in an incubator at 37 °C with 5% CO2 atmosphere. After reaching approximately 80% of confluence, cells were detached in a solution of 0.1% trypsin and 0.04% EDTA and plated as required for further experiments.
(§3) Cell lines were seeded into 96-well plates at 5 × 10^3 (HepG2) and 3 × 10^3 (Hep3B and HH4) cells/well 24 h before treatment. Increasing concentrations of the monomer trans-resveratrol, the dimers ampelopsin A and trans-ε-viniferin and the tetramers isohopeaphenol, hopeaphenol, R2-viniferin and R-viniferin were then added and cells were incubated for 24, 48, and 72 h. Stilbenes were dissolved in dimethyl sulfoxide (DMSO), Sigma-Aldrich, St Louis, MO, USA) at a final concentration of 0.01%. The same amount of DMSO was added to control cells. After treatment, the cell viability was determined using the crystal violet assay. The absorbance was recorded at 590 nm in a Synergy HT microplate reader (BioTek, Winooski, VT, USA). Cell viability was calculated as the percentage of viable cells treated with stilbene versus untreated control cells using the following equation: Cell viability (%) = [OD (Treatment) − OD (Blank)]/[OD (Control) − OD (Blank)] × 100. The cytotoxic effect of stilbenes was determined by calculating IC50 values using non-linear regression analysis (GraphPad Prism 6, San Diego, CA, USA).
(§4) The statistical package SPSS 19.0 (SPSS Inc. Chicago, IL, USA) was used for data analysis. The results were expressed as mean ± standard error (SE) from at least three experiments. Statistical significance for the differences of the means was estimated by parametric Student’s t-test. Differences between means were considered statistically significant for p < 0.05. IC50 values were derived from fitting the data to a sigmoidal dose-response curve with a three-parameter logistic model using Graph Pad Prism 6.

[2] = system: HH4; assay: Cell viability, crystal violet assay, HH4 non-transformed hepatocytes
From the text: as §1, §2, §3, §4

[3] = system: HepG2; assay: Cell viability, crystal violet assay, HepG2
From the text: as §1, §2, §3, §4

[4] = Homo sapiens, HepG2, 24 h, 24 h
[5] = Homo sapiens, HepG2, 48 h, 48 h
[6] = Homo sapiens, HepG2, 72 h, 72 h

IC50 ([1]; Homo sapiens, Hep3B, 24 h) [µM] | IC50 ([1]; Homo sapiens, Hep3B, 48 h) [µM] | IC50 ([1]; Homo sapiens, Hep3B, 72 h) [µM] | IC50 ([3]; 72 h) [µM] | IC50 [3, 4] [µM] | IC50 [3, 5] [µM] | IC50 [3, 6] [µM] | IC50 ([1]; 72 h) [µM] | Structure (SMILES) | IC50 ([2]; Homo sapiens, Hepatocyte, 24 h) [µM] | IC50 ([2]; Homo sapiens, Hepatocyte, 48 h) [µM] | IC50 ([2]; Homo sapiens, Hepatocyte, 72 h) [µM] | IC50 ([2]; 72 h) [µM]
> 200 | 148 ± 14.4 | 109 ± 7.3 | 75.5 ± 21.5 | > 200 | 98.6 ± 24.9 | 76 | – | Oc1ccc([C@H]2c3c(O)cc(O)cc3[C@H]3c4c(cc(O)cc4[C@@H]2O)O[C@@H]3c2ccc(O)cc2)cc1 [Ampelopsin A] | > 200 | 178 ± 67.8 | 134 ± 34.7 | –
> 200 | 16.8 ± 2.3 | 13 | 24.4 ± 2 | > 200 | 27 ± 3.3 | 24 | 13.1 ± 4.1 | Oc1ccc([C@H]2c3c(O)cc(O)cc3[C@H]3c4c(cc(O)cc4[C@@H]2[C@H]2c4cc(O)cc5c4[C@H](c4cc(O)cc(O)c4[C@@H]2c2ccc(O)cc2)[C@@H](c2ccc(O)cc2)O5)O[C@@H]3c2ccc(O)cc2)cc1 [Hopeaphenol] | > 200 | 92 ± 38 | 37.6 ± 13 | –
86.6 ± 11.7 | 37 ± 4.5 | 26 ± 3 | 54.1 ± 34 | 113 ± 33 | 68.8 ± 31 | 54 | – | Oc1ccc([C@@H]2c3c(O)cc(O)cc3[C@H]3c4c(cc(O)cc4[C@@H]2[C@H]2c4cc(O)cc5c4[C@H](c4cc(O)cc(O)c4[C@H]2c2ccc(O)cc2)[C@@H](c2ccc(O)cc2)O5)O[C@@H]3c2ccc(O)cc2)cc1 [Isohopeaphenol] | > 200 | 96 ± 5.5 | 63.7 ± 3.7 | –
> 200 | 137 ± 19.8 | 135 ± 35.7 | – | > 200 | > 200 | 192 ± 27.1 | – | Oc1ccc([C@H]2Oc3cc(O)cc(/C=C/c4ccc5c(c4)[C@@H](c4cc(O)cc6c4[C@H](c4cc(O)cc(O)c4)[C@@H](c4ccc(O)cc4)O6)[C@H](c4ccc(O)cc4)O5)c3[C@@H]2c2cc(O)cc(O)c2)cc1 [R-Viniferin] | – | – | – | –
> 200 | 42 ± 11.6 | 21 ± 16.8 | 30.3 ± 4.4 | > 200 | 40.3 ± 9.3 | 30 | – | Oc1ccc(/C=C/c2cc(O)cc(O)c2)cc1 [trans-Resveratrol, reference compound] | > 200 | 135 ± 9 | 93 ± 16.1 | –
108 ± 31.8 | 73.9 ± 17.3 | 63 | – | 140 ± 39.7 | 104 ± 19.2 | 94.8 ± 28.3 | 63.1 ± 10.8 | Oc1ccc(/C=C/c2cc(O)cc3c2[C@@H](c2cc(O)cc(O)c2)[C@H](c2ccc(O)cc2)O3)cc1 [trans-ε-Viniferin] | > 200 | 193 ± 21.1 | 178 | 178 ± 20.5
